From ChEMBL document CHEMBL5705899 (Biochem J, 2014)
Activity calls are given as the source filed them. The calls are words filed in the database; no cut-off is given here.

How the values were obtained:
[1] = target: Serine/threonine-protein kinase 24 (Homo sapiens) (UniProt Q9Y6E0); experiment: Inhibition of recombinant human N-terminal GST-tagged MST3 (1 to 431 residues) expressed in baculovirus infected Sf21 cells assessed as remaining activity at 1 uM using MBP as substrate incubated for 30 mins in presence of [gamma-33P]ATP by filter binding method relative to control
[2] = target: Dual specificity tyrosine-phosphorylation-regulated kinase 2 (Homo sapiens) (UniProt Q92630); experiment: Inhibition of recombinant human N-terminal GST-tagged DYRK2 (3 to 528 residues) expressed in Escherichia coli assessed as remaining activity at 1 uM using KKISGRLSPIMTEQ as substrate incubated for 30 mins in presence of [gamma-33P]ATP by filter binding method relative to control
[3] = target: Receptor tyrosine-protein kinase erbB-4 (Homo sapiens) (UniProt Q15303); experiment: Inhibition of recombinant human N-terminal His6-tagged HER4 (706 to 991 residues) expressed in baculovirus infected Sf21 cells assessed as remaining activity at 1 uM using Poly (Glu,Tyr) as substrate incubated for 30 mins in presence of [gamma-33P]ATP by filter binding method relative to control
[4] = target: Serine/threonine-protein kinase PAK 6 (Homo sapiens) (UniProt Q9NQU5); experiment: Inhibition of recombinant human N-terminal GST-tagged PAK6 (2 to 681 residues) expressed in Escherichia coli assessed as remaining activity at 1 uM using RRRLSFAEPG as substrate incubated for 30 mins in presence of [gamma-33P]ATP by filter binding method relative to control
[5] = target: Aurora kinase B (Homo sapiens) (UniProt Q96GD4); experiment: Inhibition of recombinant human N-terminal His6-tagged Aurora B (1 to 344 residues) expressed in Escherichia coli assessed as remaining activity at 1 uM using LRRLSLGLRRLSLGLRRLSLGLRRLSLG as substrate incubated for 30 mins in presence of [gamma-33P]ATP by filter binding method relative to control
[6] = target: Focal adhesion kinase 1 (Homo sapiens) (UniProt Q05397); experiment: Inhibition of human FAK (2 to 1052 residues) at 1 uM using polyEY as substrate in presence of 33P-ATP by ProQinase assay
[7] = target: Serine/threonine-protein kinase D2 (Homo sapiens) (UniProt Q9BZL6); experiment: Inhibition of human PRKD2 at 1 uM using RBER-CHKtide as substrate in presence of 33P-ATP by ProQinase assay
[8] = target: RAC-gamma serine/threonine-protein kinase (Homo sapiens) (UniProt Q9Y243); experiment: Inhibition of human AKT3 at 1 uM using RBER-GSK3 as substrate in presence of 33P-ATP by ProQinase assay
[9] = target: Calcium/calmodulin-dependent protein kinase kinase 1 (Homo sapiens) (UniProt Q8N5S9); experiment: Inhibition of human CAMKK1 at 1 uM using RB-CTF as substrate in presence of 33P-ATP by ProQinase assay
[10] = target: Serine/threonine-protein kinase Nek9 (Homo sapiens) (UniProt Q8TD19); experiment: Inhibition of human NEK9 at 1 uM using RBER-GSK3 as substrate in presence of 33P-ATP by ProQinase assay
[11] = target: Eukaryotic translation initiation factor 2-alpha kinase 1 (Homo sapiens) (UniProt Q9BQI3); experiment: Inhibition of human HRI at 1 uM using casein as substrate in presence of 33P-ATP by ProQinase assay
[12] = target: Dual specificity tyrosine-phosphorylation-regulated kinase 4 (Homo sapiens) (UniProt Q9NR20); experiment: Inhibition of human DYRK4 at 1 uM using RBER-CHKtide as substrate in presence of 33P-ATP by ProQinase assay
[13] = target: Lymphokine-activated killer T-cell-originated protein kinase (Homo sapiens) (UniProt Q96KB5); experiment: Inhibition of human PBK at 1 uM using histon H1 as substrate in presence of 33P-ATP by ProQinase assay
[14] = target: CDK3/Cyclin E (Homo sapiens) (UniProt P24864+Q00526); experiment: Inhibition of human CDK3/CyclinE1 at 1 uM using RBER-CHKtide as substrate in presence of 33P-ATP by ProQinase assay; type: protein-complex assay
[15] = target: Mitogen-activated protein kinase 3 (Homo sapiens) (UniProt P27361); experiment: Inhibition of human ERK1 at 1 uM using RBER-CHKtide as substrate in presence of 33P-ATP by ProQinase assay
[16] = target: CDK4/Cyclin D3 (Homo sapiens) (UniProt P11802+P30281); experiment: Inhibition of human CDK4/CycD3 at 1 uM using RBER-CHKtide as substrate in presence of 33P-ATP by ProQinase assay; type: protein-complex assay
[17] = target: Myosin light chain kinase 2, skeletal/cardiac muscle (Homo sapiens) (UniProt Q9H1R3); experiment: Inhibition of human MYLK2 at 1 uM using RB-S6P as substrate in presence of 33P-ATP by ProQinase assay
[18] = target: Cyclin-dependent kinase 1/cyclin B1 (Homo sapiens) (UniProt P06493+P14635); experiment: Inhibition of human CDK1/CycB1 at 1 uM using RBER-CHKtide as substrate in presence of 33P-ATP by ProQinase assay; type: protein-complex assay
[19] = target: Dual specificity protein kinase CLK3 (Homo sapiens) (UniProt P49761); experiment: Inhibition of human CLK3 at 1 uM using RB-S6P as substrate in presence of 33P-ATP by ProQinase assay
[20] = target: Inhibitor of nuclear factor kappa-B kinase subunit alpha (Homo sapiens) (UniProt O15111); experiment: Inhibition of human IKKalpha at 1 uM using RBER-CHKtide as substrate in presence of 33P-ATP by ProQinase assay
Homo sapiens = species on record: Homo sapiens; experiment: Inhibition of human CDK1/CycA2 at 1 uM using RBER-CHKtide as substrate in presence of 33P-ATP by ProQinase assay
[21] = target: Mitogen-activated protein kinase 14 (Homo sapiens) (UniProt Q16539); experiment: Inhibition of human p38alpha at 1 uM using ATF2 as substrate in presence of 33P-ATP by ProQinase assay
[22] = target: Choline kinase alpha (Homo sapiens) (UniProt P35790); experiment: Inhibition of recombinant human N-terminal GST-tagged CHKalpha (1 to 457 residues) expressed in Escherichia coli at 1 uM using choline chloride as substrate incubated for 40 mins by ADP-Glo assay
[23] = target: Sphingosine kinase 2 (Homo sapiens) (UniProt Q9NRA0); experiment: Inhibition of recombinant human N-terminal His6-tagged SPHK2 (1 to 654 residues) expressed in baculovirus expression system at 1 uM using sphingosine as substrate incubated for 40 mins by ADP-Glo assay
[24] = target: PI3K p110 beta/p85 alpha (Homo sapiens) (UniProt P27986+P42338); experiment: Inhibition of recombinant human N-terminal His6-tagged PI3Kbeta (1 to 1070 residues)/p85A (1 to 724 residues) expressed in baculovirus expression system at 1 uM using diC8 PIP2 as substrate incubated for 60 mins by ADP-Glo assay
PI3K p110 beta/p85 alpha (Homo sapiens), sequence (P27986 2-724 limits assumed): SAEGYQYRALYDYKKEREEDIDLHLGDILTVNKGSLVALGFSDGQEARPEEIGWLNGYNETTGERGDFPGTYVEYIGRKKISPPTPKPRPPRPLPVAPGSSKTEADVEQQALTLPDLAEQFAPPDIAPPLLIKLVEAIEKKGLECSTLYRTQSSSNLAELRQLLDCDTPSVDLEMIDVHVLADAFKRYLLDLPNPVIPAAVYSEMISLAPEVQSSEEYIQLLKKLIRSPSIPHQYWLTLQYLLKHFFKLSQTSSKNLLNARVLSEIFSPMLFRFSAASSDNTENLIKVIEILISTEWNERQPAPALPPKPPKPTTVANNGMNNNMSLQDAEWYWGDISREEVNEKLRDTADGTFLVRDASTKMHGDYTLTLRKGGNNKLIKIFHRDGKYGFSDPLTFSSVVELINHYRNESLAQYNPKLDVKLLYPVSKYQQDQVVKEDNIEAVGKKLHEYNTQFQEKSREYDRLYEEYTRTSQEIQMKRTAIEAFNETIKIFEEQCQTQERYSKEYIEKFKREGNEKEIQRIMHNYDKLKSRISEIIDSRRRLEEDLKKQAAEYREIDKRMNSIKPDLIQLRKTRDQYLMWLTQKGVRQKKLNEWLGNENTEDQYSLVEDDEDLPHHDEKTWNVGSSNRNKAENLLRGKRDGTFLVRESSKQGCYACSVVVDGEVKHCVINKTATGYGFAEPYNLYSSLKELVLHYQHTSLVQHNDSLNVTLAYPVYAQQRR
PI3K p110 beta/p85 alpha (Homo sapiens), sequence (P42338 whole entry partner, the tested form may be a part): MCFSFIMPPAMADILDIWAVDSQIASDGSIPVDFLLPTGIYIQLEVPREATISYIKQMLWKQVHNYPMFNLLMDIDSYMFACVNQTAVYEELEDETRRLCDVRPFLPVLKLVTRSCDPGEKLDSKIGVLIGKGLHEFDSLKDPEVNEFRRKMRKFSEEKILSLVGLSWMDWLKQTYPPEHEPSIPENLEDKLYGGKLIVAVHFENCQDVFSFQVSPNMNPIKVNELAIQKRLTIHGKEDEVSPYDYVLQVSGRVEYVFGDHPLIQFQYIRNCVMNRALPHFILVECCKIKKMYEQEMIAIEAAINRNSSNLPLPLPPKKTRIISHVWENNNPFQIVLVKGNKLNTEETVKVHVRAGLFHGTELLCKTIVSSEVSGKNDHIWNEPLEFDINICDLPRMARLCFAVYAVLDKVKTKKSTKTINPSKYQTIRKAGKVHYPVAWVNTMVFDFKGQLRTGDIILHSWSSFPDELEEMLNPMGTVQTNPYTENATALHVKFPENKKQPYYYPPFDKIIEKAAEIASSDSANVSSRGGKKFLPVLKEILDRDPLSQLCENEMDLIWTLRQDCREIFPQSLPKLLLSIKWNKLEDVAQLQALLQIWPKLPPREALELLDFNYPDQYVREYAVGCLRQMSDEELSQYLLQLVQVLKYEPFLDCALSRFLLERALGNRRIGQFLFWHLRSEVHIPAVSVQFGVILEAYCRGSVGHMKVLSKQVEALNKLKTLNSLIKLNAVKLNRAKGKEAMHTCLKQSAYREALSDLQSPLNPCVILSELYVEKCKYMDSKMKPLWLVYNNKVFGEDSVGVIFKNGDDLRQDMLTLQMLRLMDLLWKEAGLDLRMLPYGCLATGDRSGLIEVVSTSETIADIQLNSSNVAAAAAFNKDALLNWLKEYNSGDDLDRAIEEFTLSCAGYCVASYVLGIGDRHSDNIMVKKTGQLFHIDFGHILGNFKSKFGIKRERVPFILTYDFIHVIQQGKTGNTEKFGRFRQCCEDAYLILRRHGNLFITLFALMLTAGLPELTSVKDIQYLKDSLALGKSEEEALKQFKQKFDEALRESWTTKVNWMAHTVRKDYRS

RAC-gamma serine/threonine-protein kinase (Homo sapiens), sequence (Q9Y243 whole entry): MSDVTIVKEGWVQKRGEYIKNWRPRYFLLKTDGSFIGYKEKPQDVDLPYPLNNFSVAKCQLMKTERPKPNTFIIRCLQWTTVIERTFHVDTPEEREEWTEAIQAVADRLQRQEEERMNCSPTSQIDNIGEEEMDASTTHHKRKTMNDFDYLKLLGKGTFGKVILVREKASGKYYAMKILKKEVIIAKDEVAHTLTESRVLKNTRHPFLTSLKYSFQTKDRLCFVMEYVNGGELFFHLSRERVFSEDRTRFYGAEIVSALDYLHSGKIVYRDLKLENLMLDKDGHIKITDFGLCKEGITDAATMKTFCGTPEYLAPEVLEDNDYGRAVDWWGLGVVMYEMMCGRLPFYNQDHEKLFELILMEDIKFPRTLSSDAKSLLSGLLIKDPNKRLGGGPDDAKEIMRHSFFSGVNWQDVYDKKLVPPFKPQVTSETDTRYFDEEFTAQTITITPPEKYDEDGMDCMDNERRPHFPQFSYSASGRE
Choline kinase alpha (Homo sapiens), sequence (P35790 whole entry, looked up, the tested form may be a part): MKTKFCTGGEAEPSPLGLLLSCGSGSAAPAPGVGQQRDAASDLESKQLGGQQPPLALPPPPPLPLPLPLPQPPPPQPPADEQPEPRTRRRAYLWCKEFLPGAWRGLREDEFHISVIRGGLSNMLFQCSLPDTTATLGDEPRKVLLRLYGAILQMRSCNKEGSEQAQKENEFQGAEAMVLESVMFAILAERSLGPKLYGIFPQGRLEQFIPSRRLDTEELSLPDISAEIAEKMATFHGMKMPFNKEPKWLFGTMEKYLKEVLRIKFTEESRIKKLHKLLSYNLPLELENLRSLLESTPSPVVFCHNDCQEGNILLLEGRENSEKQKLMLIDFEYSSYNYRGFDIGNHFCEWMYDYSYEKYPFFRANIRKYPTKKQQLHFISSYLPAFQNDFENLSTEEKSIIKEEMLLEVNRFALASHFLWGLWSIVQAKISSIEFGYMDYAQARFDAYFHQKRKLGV
Dual specificity protein kinase CLK3 (Homo sapiens), sequence (P49761 whole entry, looked up): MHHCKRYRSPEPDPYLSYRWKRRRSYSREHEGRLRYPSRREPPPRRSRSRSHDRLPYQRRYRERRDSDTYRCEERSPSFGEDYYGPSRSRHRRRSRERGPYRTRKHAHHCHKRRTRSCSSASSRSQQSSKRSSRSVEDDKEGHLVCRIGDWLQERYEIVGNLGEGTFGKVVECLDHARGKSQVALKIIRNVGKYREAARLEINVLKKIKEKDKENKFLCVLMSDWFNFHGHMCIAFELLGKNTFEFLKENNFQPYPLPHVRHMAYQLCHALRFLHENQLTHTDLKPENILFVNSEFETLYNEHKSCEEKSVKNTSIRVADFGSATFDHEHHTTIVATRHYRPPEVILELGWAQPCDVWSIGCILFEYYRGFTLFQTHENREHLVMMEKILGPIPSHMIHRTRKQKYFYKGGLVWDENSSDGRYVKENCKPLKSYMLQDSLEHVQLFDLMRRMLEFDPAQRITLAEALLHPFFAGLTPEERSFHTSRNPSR
Serine/threonine-protein kinase D2 (Homo sapiens), sequence (Q9BZL6 whole entry): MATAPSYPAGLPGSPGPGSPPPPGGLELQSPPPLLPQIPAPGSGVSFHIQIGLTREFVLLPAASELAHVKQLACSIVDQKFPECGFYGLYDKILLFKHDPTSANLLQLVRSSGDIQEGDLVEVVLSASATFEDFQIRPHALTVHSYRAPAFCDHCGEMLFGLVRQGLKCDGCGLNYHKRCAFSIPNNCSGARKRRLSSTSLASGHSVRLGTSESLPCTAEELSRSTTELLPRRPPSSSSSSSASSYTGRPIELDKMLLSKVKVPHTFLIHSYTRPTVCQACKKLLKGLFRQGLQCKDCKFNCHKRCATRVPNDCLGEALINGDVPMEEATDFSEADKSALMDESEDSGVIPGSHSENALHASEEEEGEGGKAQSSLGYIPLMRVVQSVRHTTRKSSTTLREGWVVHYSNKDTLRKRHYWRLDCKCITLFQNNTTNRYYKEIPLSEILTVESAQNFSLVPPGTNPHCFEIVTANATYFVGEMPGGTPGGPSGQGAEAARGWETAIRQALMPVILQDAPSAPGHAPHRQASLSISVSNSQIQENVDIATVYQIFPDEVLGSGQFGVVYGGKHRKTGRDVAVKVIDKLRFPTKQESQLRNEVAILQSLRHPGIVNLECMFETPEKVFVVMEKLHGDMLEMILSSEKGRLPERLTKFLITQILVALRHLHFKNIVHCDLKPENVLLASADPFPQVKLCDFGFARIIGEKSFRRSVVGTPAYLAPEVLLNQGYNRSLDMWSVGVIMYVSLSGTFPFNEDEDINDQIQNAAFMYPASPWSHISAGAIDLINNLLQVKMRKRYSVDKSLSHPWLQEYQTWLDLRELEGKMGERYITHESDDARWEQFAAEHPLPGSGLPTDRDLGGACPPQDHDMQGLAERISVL
Lymphokine-activated killer T-cell-originated protein kinase (Homo sapiens), sequence (Q96KB5 whole entry): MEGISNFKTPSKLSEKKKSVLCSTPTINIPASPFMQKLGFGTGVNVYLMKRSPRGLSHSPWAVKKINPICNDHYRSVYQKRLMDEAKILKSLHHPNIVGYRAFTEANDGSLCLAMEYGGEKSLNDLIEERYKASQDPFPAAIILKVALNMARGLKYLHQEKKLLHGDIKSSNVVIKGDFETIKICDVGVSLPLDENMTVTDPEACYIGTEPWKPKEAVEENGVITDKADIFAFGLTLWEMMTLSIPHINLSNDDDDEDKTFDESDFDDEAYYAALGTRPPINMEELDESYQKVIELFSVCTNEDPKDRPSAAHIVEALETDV
Aurora kinase B (Homo sapiens), sequence (Q96GD4 whole entry, the tested form may be a part): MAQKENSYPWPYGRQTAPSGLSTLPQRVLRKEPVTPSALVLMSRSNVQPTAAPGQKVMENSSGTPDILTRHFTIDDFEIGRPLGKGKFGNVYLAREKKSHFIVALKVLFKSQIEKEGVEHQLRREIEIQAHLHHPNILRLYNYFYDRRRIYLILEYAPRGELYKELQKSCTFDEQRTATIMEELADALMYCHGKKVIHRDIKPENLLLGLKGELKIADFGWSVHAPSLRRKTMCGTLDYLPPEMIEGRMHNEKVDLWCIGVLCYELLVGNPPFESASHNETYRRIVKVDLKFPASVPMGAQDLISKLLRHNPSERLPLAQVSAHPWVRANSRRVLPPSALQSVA

CC(C)(O)CNc1ncc(-c2ccnc(Nc3ccnc(Cl)c3)n2)c(CC2CC2)n1
Activity [1]: 118%
Activity [2]: 109%
Activity [3]: 101%
Activity [4]: 97%
Activity [5]: 83%
inhibition [6]: inactive
inhibition [7]: inactive
inhibition [8]: inactive
inhibition [9]: inactive
inhibition [10]: inactive
inhibition [11]: inactive
inhibition [12]: inactive
inhibition [13]: inactive
inhibition [14]: inactive
inhibition [15]: inactive
inhibition [16]: inactive
inhibition [17]: inactive
inhibition [18]: inactive
inhibition [19]: inactive
inhibition [20]: inactive
inhibition (Homo sapiens): inactive
inhibition [21]: inactive
inhibition [22]: inactive
inhibition [23]: inactive
inhibition [24]: inactive
